Measured values from patent US20080004253A1, “Thiazolopyrimidine modulators of TRPV1” (priority 2006, published 2008).

Legend:
human TRPV1 = target: T1, human TRPV1 (Homo sapiens, UniProt Q8NER1); experiment: Functional assay: block of capsaicin-induced Ca2+ influx, human assay (hTRPV1/HEK293, FLIPR); format: cell-based; settings: hTRPV1/HEK293 cells, 150 nM capsaicin challenge, Fluo-3 fluorescence; mean; > value = solubility limit in assay medium
T1 construct: expressed in transfected cells; host or cells: HEK293 (hTRPV1/HEK293), zeocin selection
T1 sequence (Q8NER1 whole entry): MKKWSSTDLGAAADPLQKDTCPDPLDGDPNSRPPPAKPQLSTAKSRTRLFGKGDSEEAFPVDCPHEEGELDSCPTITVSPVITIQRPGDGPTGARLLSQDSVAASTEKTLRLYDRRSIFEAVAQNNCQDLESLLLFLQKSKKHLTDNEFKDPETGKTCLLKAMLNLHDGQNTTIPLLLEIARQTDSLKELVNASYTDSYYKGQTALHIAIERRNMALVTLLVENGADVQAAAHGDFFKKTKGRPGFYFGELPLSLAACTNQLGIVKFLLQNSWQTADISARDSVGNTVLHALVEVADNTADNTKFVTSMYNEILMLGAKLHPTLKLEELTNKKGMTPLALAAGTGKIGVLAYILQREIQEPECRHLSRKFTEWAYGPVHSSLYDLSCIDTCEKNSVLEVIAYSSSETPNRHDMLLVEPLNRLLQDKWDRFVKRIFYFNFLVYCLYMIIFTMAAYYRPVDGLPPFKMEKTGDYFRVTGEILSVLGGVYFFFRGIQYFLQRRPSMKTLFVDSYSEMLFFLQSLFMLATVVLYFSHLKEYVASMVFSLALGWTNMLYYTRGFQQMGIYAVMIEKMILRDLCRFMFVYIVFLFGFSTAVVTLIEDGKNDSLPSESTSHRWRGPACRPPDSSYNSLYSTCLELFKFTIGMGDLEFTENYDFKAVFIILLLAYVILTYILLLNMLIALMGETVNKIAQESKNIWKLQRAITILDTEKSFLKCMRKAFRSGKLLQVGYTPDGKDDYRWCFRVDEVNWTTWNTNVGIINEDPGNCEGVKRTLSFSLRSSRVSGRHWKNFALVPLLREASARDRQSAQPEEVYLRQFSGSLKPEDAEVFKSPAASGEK
Method in brief: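 HEK293 cells stably expressing human TRPV1, fluo3-loaded, preincubated 30 min with compound (serial 3-fold dilutions from 10 μM, duplicate) in 20 μM Ca2+ buffer. Capsaicin response taken as fluo3 fluorescence change before vs 100 s after agonist; IC50 by non-linear regression, mean values; free base or TFA salt.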

rat TRPV1 = target: T2, rat TRPV1 (Rattus norvegicus, UniProt O35433); experiment: Functional assay: block of capsaicin-induced Ca2+ influx, rat assay (rTRPV1/HEK293, FLIPR); format: cell-based; settings: rTRPV1/HEK293 cells, capsaicin challenge, Fluo-3 fluorescence; mean; > value = solubility limit in assay medium
T2 construct: expressed in transfected cells; host or cells: HEK293 (rTRPV1/HEK293), geneticin selection
T2 sequence (O35433 whole entry): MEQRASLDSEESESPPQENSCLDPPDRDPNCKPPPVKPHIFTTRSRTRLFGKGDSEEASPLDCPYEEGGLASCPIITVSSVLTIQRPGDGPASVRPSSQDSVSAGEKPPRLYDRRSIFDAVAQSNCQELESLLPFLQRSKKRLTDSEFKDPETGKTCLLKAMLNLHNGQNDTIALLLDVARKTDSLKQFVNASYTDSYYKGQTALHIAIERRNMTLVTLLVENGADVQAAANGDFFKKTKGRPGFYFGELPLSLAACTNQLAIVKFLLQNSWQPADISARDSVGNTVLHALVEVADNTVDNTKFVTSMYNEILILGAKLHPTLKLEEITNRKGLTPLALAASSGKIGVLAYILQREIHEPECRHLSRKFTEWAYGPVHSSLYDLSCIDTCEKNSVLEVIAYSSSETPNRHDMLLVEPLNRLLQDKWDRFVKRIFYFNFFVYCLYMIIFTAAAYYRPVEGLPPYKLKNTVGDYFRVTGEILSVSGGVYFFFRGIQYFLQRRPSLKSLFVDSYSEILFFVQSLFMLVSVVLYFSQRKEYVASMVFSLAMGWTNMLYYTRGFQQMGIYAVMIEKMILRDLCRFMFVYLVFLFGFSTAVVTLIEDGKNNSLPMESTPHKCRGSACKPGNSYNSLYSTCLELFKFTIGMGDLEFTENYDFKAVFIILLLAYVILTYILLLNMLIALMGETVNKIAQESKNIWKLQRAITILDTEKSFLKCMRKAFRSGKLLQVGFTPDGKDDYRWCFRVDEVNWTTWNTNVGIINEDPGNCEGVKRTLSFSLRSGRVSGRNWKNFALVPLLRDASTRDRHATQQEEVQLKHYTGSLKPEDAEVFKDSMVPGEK
Method in brief: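 HEK293 cells expressing rat TRPV1, loaded with fluo3 and preincubated 30 min with compound in 20 μM Ca2+ buffer before capsaicin challenge. Block read as fluo3 fluorescence change over 100 s after agonist, 3-fold series from 10 μM in duplicate. IC50 by non-linear regression, mean values.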

Structure (SMILES)	IC50 (human TRPV1)	IC50 (rat TRPV1)
Cc1nc(Nc2cccnc2)c2nc(Nc3c(C)cccc3C)sc2n1 [Example 171, N^2-(2,6-Dimethyl-phenyl)-5-methyl-N^7-pyridin-3-yl-thiazolo[5,4-d]pyrimidine-2,7-diamine]	> 20000 nM	5320 nM
Cc1cccc(C)c1Nc1nc2c(Nc3ccc(C(=O)O)cc3)ncnc2s1 [Example 172, 4-[2-(2,6-Dimethyl-phenylamino)-thiazolo[5,4-d]pyrimidin-7-ylamino]-benzoic acid]	> 20000 nM	> 20000 nM
Cc1nc(Nc2ccc(N(S(C)(=O)=O)S(C)(=O)=O)cc2)c2nc(Nc3c(Cl)cccc3Cl)sc2n1 [Example 173, N-{4-[2-(2,6-Dichloro-phenylamino)-5-methyl-thiazolo[5,4-d]pyrimidin-7-ylamino]-phenyl}-dimethanesulfonamide]	> 6670 nM	> 6670 nM
Cc1nc(Nc2ccc(NS(C)(=O)=O)cc2)c2nc(Nc3c(C)cccc3C)sc2n1 [Example 174, N-{4-[2-(2,6-Dimethyl-phenylamino)-5-methyl-thiazolo[5,4-d]pyrimidin-7-ylamino]-phenyl}-methanesulfonamide]	> 20000 nM	7380 nM
Cc1cccc(C)c1Nc1nc2c(Nc3ccc(NS(C)(=O)=O)cc3)ncnc2s1 [Example 175, N-{4-[2-(2,6-Dimethyl-phenylamino)-thiazolo[5,4-d]pyrimidin-7-ylamino]-phenyl}-methanesulfonamide]	> 20000 nM	> 20000 nM
Cc1cccc(C)c1Nc1nc2c(Nc3ccc(C(F)(F)F)cn3)ncnc2s1 [Example 176, N^2-(2,6-Dimethyl-phenyl)-N^7-(5-trifluoromethyl-pyridin-2-yl)-thiazolo[5,4-d]pyrimidine-2,7-diamine]	> 20000 nM	> 20000 nM
CS(=O)(=O)c1ccc(Nc2nc(N3CCOCC3)nc3sc(Nc4c(Cl)cccc4Cl)nc23)cc1 [Example 178, N^2-(2,6-Dichloro-phenyl)-N^7-(4-methanesulfonyl-phenyl)-5-morpholin-4-yl-thiazolo[5,4-d]pyrimidine-2,7-diamine]	287 nM	60 nM
FC(F)(F)c1ccc(Nc2nc(NCCN3CCCCC3)nc3sc(Nc4c(Cl)cccc4Cl)nc23)cc1 [Example 180, N^2-(2,6-Dichloro-phenyl)-N^5-(2-piperidin-1-yl-ethyl)-N^7-(4-trifluoromethyl-phenyl)-thiazolo[5,4-d]pyrimidine-2,5,7-triamine]	123 nM	32 nM
CNCCNc1nc(Nc2ccc(C(F)(F)F)cc2)c2nc(Nc3c(Cl)cccc3Cl)sc2n1 [Example 181, N^2-(2,6-Dichloro-phenyl)-N^5-(2-methylamino-ethyl)-N^7-(4-trifluoromethyl-phenyl)-thiazolo[5,4-d]pyrimidine-2,5,7-triamine]	6440 nM	> 20000 nM
CN(C)CCN(C)c1nc(Nc2ccc(C(F)(F)F)cc2)c2nc(Nc3c(Cl)cccc3Cl)sc2n1 [Example 182, N^2-(2,6-Dichloro-phenyl)-N^5-(2-dimethhylamino-ethyl)-methyl-N^7-(4-trifluoromethyl-phenyl)-thiazolo[5,4-d]pyrimidine-2,5,7-triamine]	1320 nM	1820 nM
CN[C@@H]1CCN(c2nc(Nc3ccc(C(F)(F)F)cc3)c3nc(Nc4c(Cl)cccc4Cl)sc3n2)C1 [Example 183, (3R)-N^2-(2,6-Dichloro-phenyl)-5-(3-methylamino-pyrrolidin-1-yl)-N^7-(4-trifluoromethyl-phenyl)-thiazolo[5,4-d]pyrimidine-2,7-diamine]	13600 nM	> 20000 nM
CS(=O)(=O)c1ccc(Nc2nc(NCC3CC3)nc3sc(Nc4c(Cl)cccc4Cl)nc23)cc1 [Example 184, N^5-Cyclopropylmethyl-N^2-(2,6-dichloro-phenyl)-N^7-(4-methanesulfonyl-phenyl)-thiazolo[5,4-d]pyrimidine-2,5,7-triamine]	8 nM	5 nM
CSc1ccc(Nc2nc(C)nc3sc(Nc4c(Cl)cccc4Cl)nc23)cn1 [Example 185, N^2-(2,6-Dichloro-phenyl)-5-methyl-N^7-(6-methylsulfanyl-pyridin-3-yl)-thiazolo[5,4-d]pyrimidine-2,7-diamine]	31 nM	32 nM
CN1CCN(c2nc(Nc3ccc(C(F)(F)F)cc3)c3nc(Nc4c(Cl)cccc4Cl)sc3n2)CC1 [Example 187, N^2-(2,6-Dichloro-phenyl)-5-(4-methyl-piperazin-1-yl)-N^7-(4-trifluoromethyl-phenyl)-thiazolo[5,4-d]pyrimidine-2,7-diamine]	809 nM	1320 nM
CCN(CC)c1nc(Nc2ccc(C(F)(F)F)cc2)c2nc(Nc3c(Cl)cccc3Cl)sc2n1 [Example 188, N^2-(2,6-Dichloro-phenyl)-N^5,N^5-diethyl-N^7-(4-trifluoromethyl-phenyl)-thiazolo[5,4-d]pyrimidine-2,5,7-triamine]	36 nM	40 nM
CCCCOc1nc(Nc2ccc(C(F)(F)F)cc2)c2nc(Nc3c(Cl)cccc3Cl)sc2n1 [Example 189, 5-Butoxy-N^2-(2,6-dichloro-phenyl)-N^7-(4-trifluoromethyl-phenyl)-thiazolo[5,4-d]pyrimidine-2,7-diamine]	19 nM	8 nM
C[C@H]1COCCN1c1nc(Nc2ccc(C(F)(F)F)cc2)c2nc(Nc3c(Cl)cccc3Cl)sc2n1 [Example 192, (3S)-N^2-(2,6-Dichloro-phenyl)-5-(3-methyl-morpholin-4-yl)-N^7-(4-trifluoromethyl-phenyl)-thiazolo[5,4-d]pyrimidine-2,7-diamine]	63 nM	19 nM
COC[C@@H]1CCCN1c1nc(Nc2ccc(C(F)(F)F)cc2)c2nc(Nc3c(Cl)cccc3Cl)sc2n1 [Example 193, (2S)-N^2-(2,6-Dichloro-phenyl)-5-(2-methoxymethyl-pyrrolidin-1-yl)-N^7-(4-trifluoromethyl-phenyl)-thiazolo[5,4-d]pyrimidine-2,7-diamine]	35 nM	36 nM
COC[C@H]1CCCN1c1nc(Nc2ccc(C(F)(F)F)cc2)c2nc(Nc3c(Cl)cccc3Cl)sc2n1 [Example 194, (2R)-N^2-(2,6-Dichloro-phenyl)-5-(2-methoxymethyl-pyrrolidin-1-yl)-N^7-(4-trifluoromethyl-phenyl)-thiazolo[5,4-d]pyrimidine-2,7-diamine]	133 nM	125 nM
CSc1ccccc1Nc1nc2c(Nc3ccc(C(F)(F)F)cc3)nc(C)nc2s1 [Example 195, 5-Methyl-N^2-(2-methylsulfanyl-phenyl)-N^7-(4-trifluoromethyl-phenyl)-thiazolo[5,4-d]pyrimidine-2,7-diamine]	419 nM	319 nM
CSc1ccccc1Nc1nc2c(Nc3ccc(C(F)(F)F)cc3)ncnc2s1 [Example 196, N^2-(2-Methylsulfanyl-phenyl)-N^7-(4-trifluoromethyl-phenyl)-thiazolo[5,4-d]pyrimidine-2,7-diamine]	64 nM	37 nM
Cc1nc(Nc2ccc(C(F)(F)F)cc2)c2nc(Nc3ccccc3S(C)(=O)=O)sc2n1 [Example 197, N^2-(2-Methanesulfonyl-phenyl)-5-methyl-N^7-(4-trifluoromethylphenyl)-thiazolo[5,4-d]pyrimidine-2,7-diamine]	312 nM	287 nM
CS(=O)(=O)c1ccc(Nc2ncnc3sc(Nc4ccccc4S(C)(=O)=O)nc23)cc1 [Example 198, N^2-(2-Methanesulfonyl-phenyl)-N^7-(4-methanesulfonyl-phenyl)-thiazolo[5,4-d]pyrimidine-2,7-diamine]	9740 nM	> 20000 nM
CS(=O)(=O)c1ccccc1Nc1nc2c(Nc3ccc(C(F)(F)F)nc3)ncnc2s1 [Example 199, N^2-(2-Methanesulfonyl-phenyl)-N^7-(6-trifluoromethyl-pyridin-3-yl)-thiazolo[5,4-d]pyrimidine-2,7-diamine]	2150 nM	1080 nM
CS(=O)(=O)c1ccccc1Nc1nc2c(Nc3ccc(S(=O)(=O)C(F)(F)F)cc3)ncnc2s1 [Example 200, N^2-(2-Methanesulfonyl-phenyl)-N^7-(4-trifluoromethanesulfonyl-phenyl)-thiazolo[5,4-d]pyrimidine-2,7-diamine]	386 nM	874 nM
CS(=O)(=O)c1ccccc1Nc1nc2c(Nc3ccc(C(F)(F)F)cc3)ncnc2s1 [Example 201, N^2-(2-Methanesulfonyl-phenyl)-N^7-(4-trifluoromethyl-phenyl)-thiazolo[5,4-d]pyrimidine-2,7-diamine]	257 nM	244 nM
Cc1nc(Nc2ccc(C(F)(F)F)cc2)c2nc(Nc3ccccc3Cl)sc2n1 [Example 202, N^2-(2-Chloro-phenyl)-5-methyl-N^7-(4-trifluoromethyl-phenyl)-thiazolo[5,4-d]pyrimidine-2,7-diamine]	57 nM	58 nM
O=S(=O)(c1ccc(Nc2ncnc3sc(Nc4ccccc4Cl)nc23)cc1)C(F)(F)F [Example 203, N^2-(2-Chloro-phenyl)-N^7-(4-trifluoromethanesulfonyl-phenyl)-thiazolo[5,4-d]pyrimidine-2,7-diamine]	48 nM	76 nM
Clc1cccc(Cl)c1Nc1nc2c(Nc3ccccc3)ncnc2s1 [Example 204, N^2-(2,6-Dichloro-phenyl)-N^7-phenyl-thiazolo[5,4-d]pyrimidine-2,7-diamine]	213 nM	226 nM
